In publication PMC11374673, “Discovery of isoquinoline sulfonamides as allosteric gyrase inhibitors with activity against fluoroquinolone-resistant bacteria” (Nature Chemistry, 2024):
Values joined by “and” are separate entries in the source; they are usually repeats but may differ in a detail not shown here. Equal entries are not always repeated. Where two headings read alike, the source gives them in different places.

Experiments:
E. coli W3110 [1] = test: MIC by broth microdilution; type: cell-based, Escherichia coli; conditions: for MIC: broth microdilution, read-out: MIC E. coli W3110; for antimicrobial activity: relative to parent compound
How it was run: (§1)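 Exponential-phase cultures (OD600 0.5, 37 °C aerobic), diluted 100-fold in CAMHB, were added to twofold compound dilution series. Keio strains grown with 50 µg ml^−1 kanamycin. Plates incubated overnight at 37 °C, shaking at 600 r.p.m.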

K. pneumoniae ATCC 29665 = test: MIC by broth microdilution; type: cell-based, Klebsiella pneumoniae; conditions: read-out: MIC K. pneumoniae ATCC 29665
How it was run: as §1

E. coli W3110 [2] = test: Checkerboard assay with PMBN; conditions: for Checkerboard well reading (growth), Average values: average of 3 wells; for Checkerboard well reading (growth): single wells (triplicate)
[3] = LEI-801 0.78125 µM + PMBN 0.5 µM
[4] = LEI-801 0.78125 µM + PMBN 16 µM
[5] = LEI-801 0.78125 µM + PMBN 32 µM
[6] = LEI-801 1.5625 µM + PMBN 0.5 µM

O=S(=O)(NC[C@H]1CC[C@@H](c2ccc(-c3ccc(F)nc3)cc2)N1)c1cccc2cnccc12 [LEI-801]
MIC (E. coli W3110 [1]; Escherichia coli, W3110, WT): > 50 µM
MIC (E. coli W3110 [1]; WT, listed as LEI-801 (99)): > 50 µM
antimicrobial activity (E. coli W3110 [1]; listed as 99): completely inactive
antimicrobial activity (E. coli W3110 [1]; listed as 99 (LEI-801)): inactive
MIC (K. pneumoniae ATCC 29665; Klebsiella pneumoniae, ATCC29665, broth microdilution): > 50 µM
MIC (K. pneumoniae ATCC 29665; broth microdilution, listed as LEI-801 (99)): > 50 µM
MIC (E. coli W3110 [2]; Escherichia coli, W3110): 200 µM
Checkerboard well reading (growth), Average values (E. coli W3110 [2]; LEI-801 0.78125 µM + PMBN 0 µM): 0.7994
Checkerboard well reading (growth) (E. coli W3110 [2]; LEI-801 0.78125 µM + PMBN 0 µM): 0.8278 and 0.8 and 0.7705
Checkerboard well reading (growth), Average values (E. coli W3110 [2]; [3]): 0.7351
Checkerboard well reading (growth) (E. coli W3110 [2]; [3]): 0.7319 and 0.7576 and 0.7157
Checkerboard well reading (growth), Average values (E. coli W3110 [2]; LEI-801 0.78125 µM + PMBN 1 µM): 0.8267
Checkerboard well reading (growth) (E. coli W3110 [2]; LEI-801 0.78125 µM + PMBN 1 µM): 0.8444 and 0.8247 and 0.811
Checkerboard well reading (growth), Average values (E. coli W3110 [2]; LEI-801 0.78125 µM + PMBN 2 µM): 0.8646
Checkerboard well reading (growth) (E. coli W3110 [2]; LEI-801 0.78125 µM + PMBN 2 µM): 0.8699 and 0.8873 and 0.8367
Checkerboard well reading (growth), Average values (E. coli W3110 [2]; LEI-801 0.78125 µM + PMBN 4 µM): 0.6877
Checkerboard well reading (growth) (E. coli W3110 [2]; LEI-801 0.78125 µM + PMBN 4 µM): 0.7078 and 0.6767 and 0.6785
Checkerboard well reading (growth), Average values (E. coli W3110 [2]; LEI-801 0.78125 µM + PMBN 8 µM): 0.5094
Checkerboard well reading (growth) (E. coli W3110 [2]; LEI-801 0.78125 µM + PMBN 8 µM): 0.4316 and 0.5477 and 0.5488
Checkerboard well reading (growth), Average values (E. coli W3110 [2]; [4]): 0.3746
Checkerboard well reading (growth) (E. coli W3110 [2]; [4]): 0.3718 and 0.3921 and 0.3599
Checkerboard well reading (growth), Average values (E. coli W3110 [2]; [5]): 0.3716
Checkerboard well reading (growth) (E. coli W3110 [2]; [5]): 0.3691 and 0.3426 and 0.4032
Checkerboard well reading (growth), Average values (E. coli W3110 [2]; LEI-801 1.5625 µM + PMBN 0 µM): 0.7861
Checkerboard well reading (growth) (E. coli W3110 [2]; LEI-801 1.5625 µM + PMBN 0 µM): 0.8385 and 0.7794 and 0.7404
Checkerboard well reading (growth), Average values (E. coli W3110 [2]; [6]): 0.7438
Checkerboard well reading (growth) (E. coli W3110 [2]; [6]): 0.7318 and 0.7541 and 0.7454
Checkerboard well reading (growth), Average values (E. coli W3110 [2]; LEI-801 1.5625 µM + PMBN 1 µM): 0.7641
Checkerboard well reading (growth) (E. coli W3110 [2]; LEI-801 1.5625 µM + PMBN 1 µM): 0.7579 and 0.7961 and 0.7382
Checkerboard well reading (growth), Average values (E. coli W3110 [2]; LEI-801 1.5625 µM + PMBN 2 µM): 0.7789
Checkerboard well reading (growth) (E. coli W3110 [2]; LEI-801 1.5625 µM + PMBN 2 µM): 0.7943 and 0.7704 and 0.772
Checkerboard well reading (growth), Average values (E. coli W3110 [2]; LEI-801 1.5625 µM + PMBN 4 µM): 0.5724
Checkerboard well reading (growth) (E. coli W3110 [2]; LEI-801 1.5625 µM + PMBN 4 µM): 0.635 and 0.5325 and 0.5498
Checkerboard well reading (growth), Average values (E. coli W3110 [2]; LEI-801 1.5625 µM + PMBN 8 µM): 0.3746
Checkerboard well reading (growth) (E. coli W3110 [2]; LEI-801 1.5625 µM + PMBN 8 µM): 0.3243 and 0.3533 and 0.4462
Checkerboard well reading (growth), Average values (E. coli W3110 [2]; LEI-801 1.5625 µM + PMBN 16 µM): 0.3394
Checkerboard well reading (growth) (E. coli W3110 [2]; LEI-801 1.5625 µM + PMBN 16 µM): 0.3897 and 0.339 and 0.2896
Checkerboard well reading (growth), Average values (E. coli W3110 [2]; LEI-801 1.5625 µM + PMBN 32 µM): 0.3074
Checkerboard well reading (growth) (E. coli W3110 [2]; LEI-801 1.5625 µM + PMBN 32 µM): 0.2616 and 0.2961 and 0.3644
Checkerboard well reading (growth), Average values (E. coli W3110 [2]; LEI-801 3.125 µM + PMBN 0 µM): 0.7892
Checkerboard well reading (growth), Average values (E. coli W3110 [2]; LEI-801 3.125 µM + PMBN 0.5 µM): 0.6976
Checkerboard well reading (growth), Average values (E. coli W3110 [2]; LEI-801 3.125 µM + PMBN 1 µM): 0.7008
Checkerboard well reading (growth), Average values (E. coli W3110 [2]; LEI-801 3.125 µM + PMBN 2 µM): 0.5725
Checkerboard well reading (growth), Average values (E. coli W3110 [2]; LEI-801 3.125 µM + PMBN 4 µM): 0.4871
Checkerboard well reading (growth), Average values (E. coli W3110 [2]; LEI-801 3.125 µM + PMBN 8 µM): 0.2805
Checkerboard well reading (growth), Average values (E. coli W3110 [2]; LEI-801 3.125 µM + PMBN 16 µM): 0.2397
Checkerboard well reading (growth), Average values (E. coli W3110 [2]; LEI-801 3.125 µM + PMBN 32 µM): 0.2242
Checkerboard well reading (growth), Average values (E. coli W3110 [2]; LEI-801 6.25 µM + PMBN 0 µM): 0.7739
Checkerboard well reading (growth), Average values (E. coli W3110 [2]; LEI-801 6.25 µM + PMBN 0.5 µM): 0.6373
Checkerboard well reading (growth), Average values (E. coli W3110 [2]; LEI-801 6.25 µM + PMBN 1 µM): 0.4799
